Holding throughout (type): cell-based
The target in test [1] is T1, ER (Homo sapiens, UniProt P03372).
T1 construct: endogenous in cells; probably T47D or MCF-7
T1 sequence (P03372 1-595): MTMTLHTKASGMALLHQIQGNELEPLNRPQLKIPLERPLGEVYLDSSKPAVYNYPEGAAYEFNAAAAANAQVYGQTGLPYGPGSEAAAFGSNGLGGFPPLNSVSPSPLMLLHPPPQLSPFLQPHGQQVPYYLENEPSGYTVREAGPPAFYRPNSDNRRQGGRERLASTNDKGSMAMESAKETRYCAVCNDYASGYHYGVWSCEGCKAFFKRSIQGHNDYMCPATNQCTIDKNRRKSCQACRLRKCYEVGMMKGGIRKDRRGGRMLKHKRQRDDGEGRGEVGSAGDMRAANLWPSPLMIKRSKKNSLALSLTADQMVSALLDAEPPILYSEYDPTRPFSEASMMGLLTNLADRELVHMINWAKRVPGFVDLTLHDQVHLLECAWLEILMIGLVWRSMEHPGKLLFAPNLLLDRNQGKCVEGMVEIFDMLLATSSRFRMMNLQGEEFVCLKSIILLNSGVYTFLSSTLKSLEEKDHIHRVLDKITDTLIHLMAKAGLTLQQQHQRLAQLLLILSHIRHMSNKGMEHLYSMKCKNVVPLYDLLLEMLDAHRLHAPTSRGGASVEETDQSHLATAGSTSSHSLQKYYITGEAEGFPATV
Description: In-cell Western (ICW) ER degradation assay in MCF-7 cells. The following applies: 16 hrs. As for the experimental part: (§1) ERa degradative activity of compounds can be assessed in MCF-7 and T47D Cells. MCF-7 and T47D cell are seeded and are subsequently treated with the compounds at certain concentrations (e.g., 0.02 to 300 nM). DMSO can be used as vehicle control. Cells are fixed and are blocked with Intercept (PBS) Blocking Buffer (e.g., Li—COR, Odyssey Blocking Buffer), and are stained with ER (e.g., 1:500, Cell signaling) primary antibody for overnight at cold room. Secondary Antibody (e.g., IRDye 800CW Goat anti-Rabbit IgG) and CellTag 700 Stain are added in Intercept (PBS) Blocking Buffer. Finally, cell plate is placed in incubator to dry. Image and signal are captured on Odyssey® DLx Imaging System.
(§2) In-cell Western (ICW) assays in MCF-7 and T47D cell lines.
(§3) Procedures for ICW assays
(§4) In vitro Assay: MCF-7 and T47D ICW assay
(§5) Day 3: After 16 hrs of compounds treatment, cells were fixed by 4% PFA and permeabilized with elution buffer (0.1% Triton X-100 in 1% PBS Solution). Subsequently, cells were blocked with Intercept (PBS) Blocking Buffer (Li—COR, Odyssey Blocking Buffer), and were stained with ER (1:500, Cell signaling) primary antibody for overnight at cold room.
(§6) Day 4: Remove the buffer, add IRDye 800CW Goat anti-Rabbit IgG Secondary Antibody (1:2000) and CellTag 700 Stain (1:500) in Intercept (PBS) Blocking Buffer. Finally, cell plate is placed in incubator to dry. Image and signal were captured on Odyssey® DLx Imaging System.

The target in test [2] is T1, ER. Description: In-cell Western (ICW) ER degradation assay in T47D cells. To be noted: T47D cells, 16 hrs. As to the method: as §1, §2, §3, §4, §5, §6
Test [3] addresses T1, ER. Put plainly: Western blot analysis (compounds B1-B126). To be noted: ER degradation, read-out: Traditional Western Degradation potency (DC50). As for the experimental part: Western Blot Analysis. The cells that are treated with the compounds are lysed in Radioimmunoprecipitation Assay Protein Lysis and Extraction Buffer (e.g., 25 mmol/L Tris.HCl, pH 7.6, 150 mmol/L NaCl, 1% Nonidet P-40, 1% sodium deoxycholate, and 0.1% sodium dodecyl sulfate) containing proteinase inhibitor cocktail. Equal amounts of total protein are electrophoresed through 10% SDS-polyacrylamide gels after determination of protein concentration by BCA assay. The separated protein bands are transferred onto PVDF membranes and blotted against different antibodies. The blots are scanned, and the band intensities are quantified (e.g., by using GelQuant.NET software provided by biochemlabsolutions.com). The relative mean intensity of target proteins is expressed after normalization to the intensity of glyceraldehyde-3-phosphate dehydrogenase bands.
Western Blot Analysis. Western blot analysis was performed essentially as described previously. The cells treated with indicated compounds were lysed in Radioimmunoprecipitation Assay Protein Lysis and Extraction Buffer (25 mmol/L Tris.HCl, pH 7.6, 150 mmol/L NaCl, 1% Nonidet P-40, 1% sodium deoxycholate, and 0.1% sodium dodecyl sulfate) containing proteinase inhibitor cocktail (Roche Diagnostics, Mannheim, Germany). Equal amounts of total protein were electrophoresed through 10% SDS-polyacrylamide gels after determination of protein concentration by BCA assay (Fisher Scientific, Pittsburgh, PA). The separated protein bands were transferred onto PVDF membranes (GE Healthcare Life Sciences, Marlborough, MA) and blotted against different antibodies, as indicated. The blots were scanned, and the band intensities were quantified using GelQuant.NET software provided by biochemlabsolutions.com. The relative mean intensity of target proteins was expressed after normalization to the intensity of glyceraldehyde-3-phosphate dehydrogenase bands.
A general note: A western blot detects proteins with antibodies after separation by electrophoresis.

In test [4] the target is T1, ER. Put plainly: In-cell western blot analysis, relative ER percentage (compounds B1-B126). The following applies: ER degradation, 16 hours, read-out: ICW DC50. The method, boiled down:
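Readout was a two-colour infrared in-cell western of formaldehyde-fixed cells after 16 h compound exposure at 0.5% DMSO, with 40,000 or 10,000 cells/well plated the previous night. Relative ER percentage compares treated wells against untreated/DMSO-treated wells taken as 100%.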

The nature of test [5]: Cell growth assay, WST-8 (compounds B1-B126). The following applies: 96 h; T47D cell line, WST-8, 4 days; read-out: Cell growth inhibition in T47D cell line IC50. The method, boiled down: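 Read-out is WST-8 absorbance at 450 nm (2.5 h, 37° C) as a fraction of vehicle control, from three separate repeats. Compound exposure lasted 4 days, starting one day after plating 1500 cells/well.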
A general note: Formazan colour is commonly taken as a measure of viable cells.

The text below walks through data of patent US20260256925A1, “INDAZOLE DERIVATIVES AS ESTROGEN RECEPTOR DEGRADERS” (REGENTS OF THE UNIVERSITY OF MICHIGAN, priority 2022, published 2026).

A value given as a limit tells only on which side of the number the result lay.

A word on the Dmax: it is the greatest extent of degradation seen. What is called DC50 is the concentration at which degradation of the target reaches its halfway point. With `C[C@@H]1Cc2c(ccc3[nH]ncc23)[C@@H](c2ccc(N3CCC4(CC3)CC(CN3CCN5c6cc7c(cc6OC[C@@H]5C3)C(=O)N([C@@H]3CCC(=O)NC3=O)C7)C4)cn2)N1CC1(F)CC1` [Compound A12, (R)-3-((S)-3-((7-(6-((6S,8R)-7-((1-fluorocyclopropyl)methyl)-8-methyl-6,7,8,9-tetrahydro-3H-pyrazolo[4,3-f]isoquinolin-6-yl)pyridin-3-yl)-7-azaspiro[3.5]nonan-2-yl)methyl)-8-oxo-1,2,3,4,4a,5,8,10-octahydro-9H-pyrazino[1′,2′: 4,5][1,4]oxazino[2,3-f]isoindol-9-yl)piperidine-2,6-dione], the Dmax is greater than 75% on ER [1] (MCF7, MCF-7 cells, read-out: ER MCF7 ICW Dmax (%)) and greater than 75% at ER [2] (T47D, read-out: ER T47D ICW Dmax (%)). The DC50 is less than 1 nM at ER [1] (MCF-7 cells, read-out: ER MCF7 ICW DC50) and less than 1 nM on ER [2].
For `C[C@@H]1Cc2c(ccc3[nH]ncc23)[C@@H](c2c(F)cc([C@H]3CC[C@@H](C(=O)N4CCC(N5Cc6cc7c(cc6C5)C(=O)N(C5CCC(=O)NC5=O)C7=O)CC4)CC3)cc2F)N1CC(F)F` (stereo partly drawn) [Compound B1, 6-(1-((1R,4s)-4-(4-((6S,8R)-7-(2,2-difluoroethyl)-8-methyl-6,7,8,9-tetrahydro-3H-pyrazolo[4,3-f]isoquinolin-6-yl)-3,5-difluorophenyl)cyclohexane-1-carbonyl)piperidin-4-yl)-2-(2,6-dioxopiperidin-3-yl)-6,7-dihydropyrrolo[3,4-f]isoindole-1,3(2H,5H)-dione], the DC50 on ER [3] is less than 10 nM.
The same measure, in the same setting: in the case of `C[C@@H]1Cc2c(ccc3[nH]ncc23)[C@@H](c2c(F)cc([C@H]3CC[C@H](C(=O)N4CCC(N5Cc6cc7c(cc6C5)C(=O)N(C5CCC(=O)NC5=O)C7=O)CC4)CC3)cc2F)N1CC(F)F` (stereo partly drawn) [Compound B2, 6-(1-((1S,4r)-4-(4-((6S,8R)-7-(2,2-difluoroethyl)-8-methyl-6,7,8,9-tetrahydro-3H-pyrazolo[4,3-f]isoquinolin-6-yl)-3,5-difluorophenyl)cyclohexane-1-carbonyl)pipcridin-4-yl)-2-(2,6-dioxopiperidin-3-yl)-6,7-dihydropyrrolo[3,4-f]isoindole-1,3(2H,5H)-dione] it was less than 10 nM.
Still for that read-out and setting: in the case of `C[C@@H]1Cc2c(ccc3[nH]ncc23)[C@@H](c2c(F)cc([C@H]3CC[C@H](C(=O)N4CC(CN5Cc6cc7c(cc6C5)C(=O)N(C5CCC(=O)NC5=O)C7=O)C4)CC3)cc2F)N1CC(F)F` (stereo partly drawn) [Compound B3, 6-((1-((1S,4r)-4-(4-((6S,8R)-7-(2,2-difluoroethyl)-8-methyl-6,7,8,9-tetrahydro-3H-pyrazolo[4,3-f]isoquinolin-6-yl)-3,5-difluorophenyl)cyclohexane-1-carbonyl)azetidin-3-yl)methyl)-2-(2,6-dioxopiperidin-3-yl)-6,7-dihydropyrrolo[3,4-f]isoindole-1,3(2H,5H)-dione] it was greater than 100 nM.
For orientation: IC50 means the concentration that inhibits the measured activity by half. As for `C[C@@H]1Cc2c(ccc3[nH]ncc23)[C@@H](c2ccc(N3CCC4(CCC(CN5CCN6c7ccc8c(c7OCC6C5)CN([C@H]5CCC(=O)NC5=O)C8=O)CO4)CC3)nn2)N1CC(F)(F)F` (stereo partly drawn) [Compound B127, (3S)-3-(7-((9-(6-((6S,8R)-8-methyl-7-(2,2,2-trifluoroethyl)-6,7,8,9-tetrahydro-3H-pyrazolo[4,3-f]isoquinolin-6-yl)pyridazin-3-yl)-1-oxa-9-azaspiro[5.5]undecan-3-yl)methyl)-1-oxo-1,3,5,5a,6,7,8,9-octahydro-2H-pyrazino[1′,2′:4,5][1,4]oxazino[2,3-e]isoindol-2-yl)piperidine-2,6-dione], the DC50 at ER [4] is less than 10 nM. Further, in test [5], the IC50 was less than 1 nM.
For `C[C@@H]1Cc2c(ccc3[nH]ncc23)[C@@H](c2ccc(N3CCC4(CCC(CN5CCC6(CC5)COc5c6ccc6c5CN([C@H]5CCC(=O)NC5=O)C6=O)CO4)CC3)nn2)N1CC(F)(F)F` (stereo partly drawn) [Compound B128, (3S)-3-(1′-((9-(6-((6S,8R)-8-methyl-7-(2,2,2-trifluoroethyl)-6,7,8,9-tetrahydro-3H-pyrazolo[4,3-f]isoquinolin-6-yl)pyridazin-3-yl)-1-oxa-9-azaspiro[5.5]undecan-3-yl)methyl)-6-oxo-6,8-dihydro-2H,7H-spiro[furo[2,3-e]isoindole-3,4′-piperidin]-7-yl)piperidine-2,6-dione], the DC50 on ER [4] was less than 10 nM. Besides, the IC50 in test [5] is less than 1 nM.
